Columns and labels:
androgen receptor [1] = target: T1, androgen receptor (Rattus norvegicus, UniProt P15207); experiment: Androgen Receptor Filtration Binding Assay ([3H] R1881 tracer); settings: @ 1 μM test compound; negative values indicate no antagonist activity; cmpd 4: two separate synthesis batches; cmpds 5 and 7: average of 2
T1 construct: 5 pmol androgen receptor LBD (Panvera); purchased Panvera
T1 sequence (P15207 651-882 limits assumed): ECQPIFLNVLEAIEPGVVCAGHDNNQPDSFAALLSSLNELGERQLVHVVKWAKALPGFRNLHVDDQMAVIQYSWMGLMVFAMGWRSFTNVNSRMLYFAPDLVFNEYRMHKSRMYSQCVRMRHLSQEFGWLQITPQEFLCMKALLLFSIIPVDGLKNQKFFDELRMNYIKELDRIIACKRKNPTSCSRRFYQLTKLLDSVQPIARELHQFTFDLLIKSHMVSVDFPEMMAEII

androgen receptor [2] = target: T1, androgen receptor; experiment: as above; settings: Androgen Receptor Binding Results
Procedure: In Vitro Assay—Androgen Receptor Filtration Binding Assay
The assay was run on a 96 well plate with each well filled with total reaction volume 150 μL, of a solution containing 5 pmol androgen receptor LBD (Panvera) or 30 μL of freshly prepared rat cytosol, 0.5 nM [^3H] R1881 tracer (NEN), 1.5 μL (10 μM) test compound or vehicle (diluted in 30% DMSO, final concentration of DMSO 0.75%) and […] of TED buffer. (TED buffer contains 10 mM Tris.HCl pH 7.4, 1 mM sodium molybdate (60 mg/250 mL), 1.5 mM EDTA, 1 mM DTT and 10% (v/v) glycerol.)
On day one, the solution containing receptor, tracer and TED buffer was distributed onto a 96 well plate. Diluted test compound or control vehicle was then added to individual wells and the plate incubated at 4° C. overnight.
On day two, to each well was then added 20 μL human γ-globulin (ICN 823102), prepared at 25 mg/ml in TE pH 8.0, and 55 μL 40% polyethylene glycol 8000 (J T Baker U222-08), prepared in TE pH 8.0. The plate was incubated at 4° C. for 60 minutes. During incubation, the harvester was rinsed with 10% PEG 8000, prepared in TE pH 8.0 and the GF/C Unifilter-96 prewet with 10% PEG. The binding reaction was filtered, the retentate was washed three times with 10% PEG and dried under vacuum for about four minutes, then dried at 50° C. for 5 min and then bottom sealed. 25 μL of Microscint-20 (Packard) was added to the filter wells and top sealed. The plate wells were then counted on a TopCount (Packard).
Selected compounds of the present invention were tested for binding to the androgen receptor according to the procedure described above with results as listed in Table 2. Negative number(s) indicate that there is no antagonist activity for the test compound. The compound may however have agonist activity, which was not tested for.

Row | SMILES | inhibition at 1 µM (androgen receptor [1]) | inhibition at 10 µM (androgen receptor [2]; @ 10 μM test compound) | IC50 (androgen receptor [2])
1 | O=C(Nc1ccc([N+](=O)[O-])c(C(F)(F)F)c1)C1CSC(c2cccc(Cl)c2)=N1 (stereo not drawn) [Cmpd #30, 2-(3-chloro-phenyl)-4,5-dihydro-thiazole-4-carboxylic Acid (4-nitro-3-trifluoromethyl-phenyl)-amide] | 7% | – | –
2 | O=C(Nc1ccc(S(=O)(=O)C(F)(F)F)cc1)C1CSC(c2cccc(Cl)c2)=N1 (stereo not drawn) [Cmpd #31, 2-(3-chloro-phenyl)-4,5-dihydro-thiazole-4-carboxylic Acid (4-trifluoromethanesulfonyl-phenyl)-amide] | 10% | – | –
3 | CC1(C)SC(c2ccc(F)cc2)=NC1C(=O)Nc1ccc([N+](=O)[O-])c(C(F)(F)F)c1 (stereo not drawn) [Cmpd #20, 2-(4-fluoro-phenyl)-5,5-dimethyl-4,5-dihydro-thiazole-4-carboxylic Acid (4-nitro-3-trifluoromethyl-phenyl)-amide] | 29% | – | –
4 | N#Cc1ccc(NC(=O)C2CSC(c3ccc(Cl)cc3)=N2)cc1C(F)(F)F (stereo not drawn) [Cmpd #9, 2-(4-chloro-phenyl)-4,5-dihydro-thiazole-4-carboxylic acid (4-cyano-3-trifluoromethyl-phenyl)-amide] | 41.5% | – | –
5 | O=C(Nc1ccc(Cl)cc1)C1CSC(c2ccc(Cl)cc2)=N1 (stereo not drawn) [Cmpd #16, 2-(4-chloro-phenyl)-4,5-dihydro-thiazole-4-carboxylic Acid (4-chloro-phenyl)-amide] | 12% | – | –
6 | CC1(C)SC(c2ccc(Cl)cc2)=NC1C(=O)Nc1cc(F)c(C#N)cc1F (stereo not drawn) [Cmpd #23, 2-(4-chloro-phenyl)-5,5-dimethyl-4,5-dihydro-thiazole-4-carboxylic Acid (4-cyano-2,5-difluoro-phenyl)-amide] | -5% | – | –
7 | N#Cc1ccc(NC(=O)C2CSC(c3ccc(F)cc3)=N2)cc1C(F)(F)F (stereo not drawn) [Cmpd #1, 2-(4-fluoro-phenyl)-4,5-dihydro-thiazole-4-carboxylic Acid (3-trifluoromethyl-4-cyano-phenyl)-amide] | 28.5% | 50% | –
8 | CC1(C)SC(c2ccc(F)cc2)=NC1C(=O)Nc1ccc(Cl)c(C(F)(F)F)c1 (stereo not drawn) [Cmpd #21, 2-(4-fluoro-phenyl)-5,5-dimethyl-4,5-dihydro-thiazole-4-carboxylic Acid (4-chloro-3-trifluoromethyl-phenyl)-amide] | 29% | – | –
9 | O=C(Nc1ccc(S(=O)(=O)C(F)(F)F)cc1)C1CSC(c2ccc(Cl)cc2)=N1 (stereo not drawn) [Cmpd #29, 2-(4-chloro-phenyl)-4,5-dihydro-thiazole-4-carboxylic Acid (4-trifluoromethanesulfonyl-phenyl)-amide] | 25% | – | –
10 | CC1(C)SC(c2ccc(F)cc2)=NC1C(=O)Nc1ccc(C#N)c(C(F)(F)F)c1 (stereo not drawn) [Cmpd #19, 2-(4-fluoro-phenyl)-5,5-dimethyl-4,5-dihydro-thiazole-4-carboxylic Acid (4-cyano-3-trifluoromethyl-phenyl)-amide] | -1% | – | –
11 | CC1(C)SC(c2ccc(Cl)cc2)=NC1C(=O)Nc1ccc(Cl)c(C(F)(F)F)c1 (stereo not drawn) [Cmpd #22, 2-(4-chloro-phenyl)-5,5-dimethyl-4,5-dihydro-thiazole-4-carboxylic Acid (4-chloro-3-trifluoromethyl-phenyl)-amide] | 0% | – | –
12 | N#Cc1ccc(NC(=O)C2CSC(c3ccc(F)cc3)=N2)cc1 (stereo not drawn) [Cmpd #2, 2-(4-fluoro-phenyl)-4,5-dihydro-thiazole-4-carboxylic Acid (4-cyano-phenyl)-amide] | -26% | – | –
13 | CC1(C(=O)Nc2ccc([N+](=O)[O-])c(C(F)(F)F)c2)CSC(c2ccc(F)cc2)=N1 (stereo not drawn) [compound 13] | 29% | – | > 10 µM
14 | N#Cc1ccc(NC(=O)C2CSC(c3cccc(F)c3)=N2)cc1C(F)(F)F (stereo not drawn) [Cmpd #3, 2-(3-fluoro-phenyl)-4,5-dihydro-thiazole-4-carboxylic Acid (4-cyano-3-trifluoromethyl-phenyl)-amide] | 8.1% | – | –
15 | O=C(Nc1cccc(C(F)(F)F)c1F)C1CSC(c2cccc(Cl)c2)=N1 (stereo not drawn) [Cmpd #32, 2-(3-chloro-phenyl)-4,5-dihydro-thiazole4-carboxylic Acid (2-fluoro-3-trifluoromethyl-phenyl)-amide] | 8.5% | – | –
16 | O=C(Nc1ccc([N+](=O)[O-])c(C(F)(F)F)c1)C1CSC(c2ccc(Cl)cc2)=N1 (stereo not drawn) [Cmpd #10, 2-(4-chloro-phenyl)-4,5-dihydro-thiazole-4-carboxylic acid (4-nitro-3-trifluoromethyl-phenyl)-amide] | 60.5% | – | –
17 | CC1(C(=O)Nc2ccc(Cl)c(C(F)(F)F)c2)CSC(c2ccc(F)cc2)=N1 (stereo not drawn) [compound 12] | 52% | – | > 10 µM
18 | CC1(C(=O)Nc2ccc(C#N)c(C(F)(F)F)c2)CSC(c2ccc(F)cc2)=N1 (stereo not drawn) [Cmpd #33, 2-(4-fluoro-phenyl)-4-methyl-4,5-dihydro-thiazole-4-carboxylic Acid (4cyano-3-trifluoromethyl-phenyl)-amide] | 27% | – | –
19 | N#Cc1ccc(NC(=O)C2CSC(c3cccc(Cl)c3)=N2)cc1C(F)(F)F (stereo not drawn) [Cmpd #27, 2-(3-chloro-phenyl)-4,5-dihydro-thiazole-4-carboxylic Acid (4-cyano-3-trifluoromethyl-phenyl)-amide] | 34% | – | –

Second part, led by results:

Row | inhibition at 1 µM (androgen receptor [1]) | SMILES | inhibition at 10 µM (androgen receptor [2]; @ 10 μM test compound) | IC50 (androgen receptor [2])
20 | -19% | O=C(Nc1ccc(F)c(C(F)(F)F)c1)C1CSC(c2cccc(F)c2)=N1 (stereo not drawn) [Cmpd #18, 2-(3-fluoro-phenyl)-4,5-dihydro-thiazole-4-carboxylic Acid (4-fluoro-3-trifluoromethyl-phenyl)-amide] | – | –
21 | 15% | O=C(Nc1ccc(Cl)c(C(F)(F)F)c1)C1CSC(c2cccc(Cl)c2)=N1 (stereo not drawn) [Cmpd #26, 2-(3-chloro-phenyl)-4,5-dihydro-thiazole-4-carboxylic Acid (4-chloro-3-trifluoromethyl-phenyl)-amide] | – | –
22 | -6.3% | O=C(Nc1ccc(S(=O)(=O)C(F)(F)F)cc1)C1CSC(c2ccc(F)cc2)=N1 (stereo not drawn) [Cmpd #28, 2-(4-fluoro-phenyl)-4,5-dihydro-thiazole-4-carboxylic Acid (4-trifluoromethanesulfonyl-phenyl)-amide] | – | –
23 | -34% | O=C(Nc1ccc(Cl)c(C(F)(F)F)c1)C1CSC(c2cccc(F)c2)=N1 (stereo not drawn) [Cmpd #17, 2-(3-fluoro-phenyl)-4,5-dihydro-thiazole4-carboxylic Acid (4-chloro-3-trifluoromethyl-phenyl)-amide] | – | –
24 | 30.5% | O=C(Nc1ccc(Cl)c(C(F)(F)F)c1)C1CSC(c2ccc(Cl)cc2)=N1 (stereo not drawn) [Cmpd #11, 2-(4-chloro-phenyl)-4,5-dihydro-thiazole-4-carboxylic acid (4-chloro-3-trifluoromethyl-phenyl)-amide] | – | 3.5 µM
25 | -24.2% | O=C(Nc1ccc(F)c(C(F)(F)F)c1)C1CSC(c2ccc(F)cc2)=N1 (stereo not drawn) [Cmpd #7, 2-(4-fluoro-phenyl)-4,5-dihydro-thiazole-4-carboxylic Acid (4-fluoro-3-trifluoromethyl-phenyl)-amide] | – | –
26 | 1.5% | O=C(Nc1ccc(F)c(C(F)(F)F)c1)C1CSC(c2ccc(Cl)cc2)=N1 (stereo not drawn) [Cmpd #14, 2-(4-chloro-phenyl)-4,5-dihydro-thiazole-4-carboxylic acid (4-fluoro-3-trifluoromethyl-phenyl)-amide] | – | –
27 | 0.74% | O=C(Nc1cccc(C(F)(F)F)c1F)C1CSC(c2ccc(Cl)cc2)=N1 (stereo not drawn) [Cmpd #24, 2-(4-chloro-phenyl)-4,5-dihydro-thiazole-4-carboxylic Acid (2-fluoro-3-trifluoromethyl-phenyl)-amide] | – | –
28 | 12.3% | O=C(Nc1ccc(Cl)c(C(F)(F)F)c1)C1CSC(c2ccc(F)cc2)=N1 (stereo not drawn) [compound 5, 2-(4-fluoro-phenyl)-4,5-dihydro-thiazole-4-carboxylic Acid (4-chloro-3-trifluoromethyl-phenyl)-amide] | – | –
29 | -8% | O=C(Nc1cccc(C(F)(F)F)c1F)C1CSC(c2ccc(F)cc2)=N1 (stereo not drawn) [Cmpd #25, 2-(4-fluoro-phenyl)-4,5-dihydro-thiazole-4-carboxylic Acid (2-fluoro-3-trifluoromethyl-phenyl)-amide] | – | –

— patent publication US20050014952A1, “Novel thiazoline derivatives as selective androgen receptor modulators (SARMS)” (priority 2003, published 2005)
